According to patent US20230310462A1, “COMBINATION DRUG FOR THE CONTROL AND MANAGEMENT OF TYPE 2 DIABETES MELLITUS” (LABORATORIOS SILANES S.A. DE C.V., priority 2020, published 2023):

Assays:
[1] = Single-dose crossover comparative bioavailability study, fixed combination vs co-administered reference drugs, plasma HPLC-MS/MS
Description: In another embodiment of the invention, bioavailability tests are performed to determine whether there are differences in the magnitude and rate of absorption between the test product of this invention (fixed dose combination) and co-administration of reference drugs that impact the bioavailability of the drugs upon administration.
On the other hand, the determination of the pharmacokinetic parameters of Cmax and area under the plasma concentration curve with respect to time (ABC0-t) are determined, which allow characterizing the bioavailability of the drug of this invention from its dosage form, in terms of speed and degree of respective absorption. Therefore, the purpose of the bioavailability tests is to determine if there are differences in the magnitude and speed of absorption between the test product of the present invention (fixed combination) and the co-administration of reference drugs that impact the bioavailability of the drugs when administered under fasting conditions.
A total of 44 healthy volunteers (27 men and 17 women) were randomized in the study. […] After a period of 7 half-lives, the pharmacokinetic effect of washout can be completely disregarded. Each volunteer received the treatments under study according to randomization.
The pharmacokinetic parameters were determined through independent model methods. Descriptive statistics are presented below in Tables 19-21.

[2] = according to biopharmaceutical classification; cited from earlier work
[3] = reported, in Mexican population; cited from earlier work

Intrasubject Variability Coefficient, Ln (ABC0-t) of glimepiride ([1]; both, human, in vivo) [%] | Intrasubject Variability Coefficient, Ln (Cmax) of glimepiride ([1]; both, human, in vivo) [%] | Intrasubject Variability Coefficient, Ln (Cmax) ([1]; both, human, in vivo) [%] | Intrasubject Variability Coefficient, Ln (ABC0-t) ([1]; vildagliptin pharmacokinetic parameter) [%] | Compound | solubility [2] | elimination half-life [3] [h]
15.58 | 28.21 | – | – | CCC1=C(C)CN(C(=O)NCCc2ccc(S(=O)(=O)NC(=O)N[C@H]3CC[C@H](C)CC3)cc2)C1=O [glimepiride] | low | 7.5 ± 4
– | – | 19.12 | 9.14 | N#C[C@@H]1CCCN1C(=O)CN[C@@]12C[C@@H]3C[C@@H](CC(O)(C3)C1)C2 [vildagliptin] | high | –
